In ChEMBL document CHEMBL1148149, “Bufadienolide and spirostanol glycosides from the rhizomes of helleborusorientalis” (J Nat Prod, 2003):
Converted amounts (≈) assume the structure as drawn.

How the values were obtained:
Format in all cases: functional, cell-based
HSC-2 = assay: Cytotoxicity against human HSC2 cells after 24 hrs by MTT assay; conditions: HSC-2, 24 h
A-375 = assay: Cytotoxicity against human A375 cells after 24 hrs by MTT assay; conditions: A-375, 24 h
HepG2 = assay: Cytotoxicity against human HepG2 cells after 24 hrs by MTT assay; conditions: HepG2, 24 h
[1] = Cytotoxicity against human HPC cells after 24 hrs by MTT assay

SMILES | IC50 (HSC-2) | IC50 (A-375) | IC50 (HepG2) | IC50 [1]
C[C@@H]1O[C@@H](O[C@H]2CC[C@]3(C=O)[C@H]4CC[C@]5(C)[C@@H](c6ccc(=O)oc6)[C@@H](O)C[C@]5(O)[C@@H]4CC[C@]3(O)C2)[C@H](O)[C@H](O)[C@H]1O | 0.0085 µg/mL (≈ 0.0147 µM) | 0.055 µg/mL (≈ 0.095 µM) | 0.74 µg/mL (≈ 1.28 µM) | 9.5 µg/mL (≈ 16.4 µM)
C[C@@H]1O[C@@H](O[C@H]2CC[C@]3(C=O)[C@H]4CC[C@]5(C)[C@@H](c6ccc(=O)oc6)CC[C@]5(O)[C@@H]4CC[C@]3(O)C2)[C@H](O)[C@H](O)[C@H]1O | 0.0028 µg/mL (≈ 0.00498 µM) | 0.0063 µg/mL (≈ 0.0112 µM) | 0.25 µg/mL (≈ 0.444 µM) | 6.7 µg/mL (≈ 11.9 µM)
C[C@]12CC[C@H]3[C@@H](CC[C@]4(O)C[C@@H](O[C@@H]5O[C@H](CO)[C@@H](O)[C@H](O)[C@H]5O)CC[C@]34C=O)[C@@]1(O)CC[C@@H]2c1ccc(=O)oc1 | 0.0029 µg/mL (≈ 0.00501 µM) | 0.0086 µg/mL (≈ 0.0149 µM) | 0.23 µg/mL (≈ 0.397 µM) | 0.082 µg/mL (≈ 0.142 µM)
C=C1CO[C@@]2(O[C@H]3C[C@H]4[C@@H]5CC=C6C[C@@H](O)C[C@@H](O[C@@H]7OC[C@H](O)[C@H](O[C@@H]8OC[C@@H](O)[C@H](O)[C@H]8O)[C@H]7O[C@@H]7O[C@@H](C)[C@H](OC(C)=O)[C@@H](O[C@@H]8OC[C@](O)(CO)[C@H]8O)[C@H]7O)[C@]6(C)[C@H]5CC[C@]4(C)[C@H]3[C@@H]2C)[C@@H](O)[C@H]1O | 86 µg/mL (≈ 82.3 µM) | – | – | –
C=C1CO[C@@]2(O[C@H]3C[C@H]4[C@@H]5CC=C6C[C@@H](O)C[C@@H](O[C@@H]7OC[C@H](O)[C@H](O[C@@H]8OC[C@@H](O)[C@H](O)[C@H]8O)[C@H]7O[C@@H]7O[C@@H](C)[C@H](OC(C)=O)[C@@H](O[C@@H]8OC[C@](O)(CO)[C@H]8O)[C@H]7O)[C@]6(C)[C@H]5CC[C@]4(C)[C@H]3[C@@H]2C)[C@@H](O)C1 | 27 µg/mL (≈ 26.2 µM) | – | – | –
C=C1CO[C@@]2(O[C@H]3C[C@H]4[C@@H]5CC=C6C[C@@H](O)C[C@@H](O[C@@H]7OC[C@H](O)[C@H](O[C@@H]8OC[C@@H](O)[C@H](O)[C@H]8O)[C@H]7O[C@@H]7O[C@@H](C)[C@H](OC(C)=O)[C@@H](O[C@@H]8OC[C@](O)(CO)[C@H]8O)[C@H]7O)[C@]6(C)[C@H]5CC[C@]4(C)[C@H]3[C@@H]2COC(C)=O)[C@@H](O)[C@H]1O[C@@H]1O[C@H](C)[C@@H](O)[C@H](O)[C@H]1O | > 200 µg/mL | – | – | –
C=C1CO[C@@]2(O[C@H]3C[C@H]4[C@@H]5CC=C6C[C@@H](O)C[C@@H](O[C@@H]7OC[C@H](O)[C@H](O[C@@H]8OC[C@@H](O)[C@H](O)[C@H]8O)[C@H]7O[C@@H]7O[C@@H](C)[C@H](OC(C)=O)[C@@H](O[C@@H]8OC[C@](O)(CO)[C@H]8O)[C@H]7O)[C@]6(C)[C@H]5CC[C@]4(C)[C@H]3[C@@H]2COC(C)=O)[C@@H](O)[C@H]1O[C@@H]1O[C@H](CO)[C@@H](O)[C@H](O)[C@H]1O | > 200 µg/mL | – | – | –
C=C1CO[C@@]2(O[C@H]3C[C@H]4[C@@H]5CC=C6C[C@@H](O)C[C@@H](O[C@@H]7OC[C@H](O)[C@H](O[C@@H]8OC[C@@H](O)[C@H](O)[C@H]8O)[C@H]7O[C@@H]7O[C@@H](C)[C@H](OC(C)=O)[C@@H](O[C@@H]8OC[C@](O)(CO)[C@H]8O)[C@H]7O)[C@]6(C)[C@H]5CC[C@]4(C)[C@H]3[C@@H]2COC(C)=O)[C@@H](O)[C@H]1O | 184 µg/mL (≈ 167 µM) | – | – | –
COc1cccc2c1C(=O)c1c(O)c3c(c(O)c1C2=O)C[C@@](O)(C(=O)CO)C[C@@H]3O[C@H]1C[C@H](N)[C@H](O)[C@H](C)O1 [DOXORUBICIN] | 2.5 µg/mL (≈ 4.6 µM) | 1.8 µg/mL (≈ 3.31 µM) | > 40 µg/mL | > 40 µg/mL
